Values quoted from earlier work in patent US20030207327A1, “Coisogenic eukaryotic cell collections” (priority 2001, published 2003).
Numbering of substitutions follows the chain as printed. Like-named read-outs stand apart in the source and are kept apart here. Blank lines part the entries; values can stand above or below the compound they belong to.

Experiments:
CYP2D6 = conditions: protein variant Gly169Ter; poor drug metabolizer; OMIM 124030
[1] = molecular target: ABCB1 (MDR1, P-glycoprotein) (Homo sapiens, UniProt P08183, G185V)
ABCB1 (MDR1, P-glycoprotein), sequence (P08183 whole entry G185V): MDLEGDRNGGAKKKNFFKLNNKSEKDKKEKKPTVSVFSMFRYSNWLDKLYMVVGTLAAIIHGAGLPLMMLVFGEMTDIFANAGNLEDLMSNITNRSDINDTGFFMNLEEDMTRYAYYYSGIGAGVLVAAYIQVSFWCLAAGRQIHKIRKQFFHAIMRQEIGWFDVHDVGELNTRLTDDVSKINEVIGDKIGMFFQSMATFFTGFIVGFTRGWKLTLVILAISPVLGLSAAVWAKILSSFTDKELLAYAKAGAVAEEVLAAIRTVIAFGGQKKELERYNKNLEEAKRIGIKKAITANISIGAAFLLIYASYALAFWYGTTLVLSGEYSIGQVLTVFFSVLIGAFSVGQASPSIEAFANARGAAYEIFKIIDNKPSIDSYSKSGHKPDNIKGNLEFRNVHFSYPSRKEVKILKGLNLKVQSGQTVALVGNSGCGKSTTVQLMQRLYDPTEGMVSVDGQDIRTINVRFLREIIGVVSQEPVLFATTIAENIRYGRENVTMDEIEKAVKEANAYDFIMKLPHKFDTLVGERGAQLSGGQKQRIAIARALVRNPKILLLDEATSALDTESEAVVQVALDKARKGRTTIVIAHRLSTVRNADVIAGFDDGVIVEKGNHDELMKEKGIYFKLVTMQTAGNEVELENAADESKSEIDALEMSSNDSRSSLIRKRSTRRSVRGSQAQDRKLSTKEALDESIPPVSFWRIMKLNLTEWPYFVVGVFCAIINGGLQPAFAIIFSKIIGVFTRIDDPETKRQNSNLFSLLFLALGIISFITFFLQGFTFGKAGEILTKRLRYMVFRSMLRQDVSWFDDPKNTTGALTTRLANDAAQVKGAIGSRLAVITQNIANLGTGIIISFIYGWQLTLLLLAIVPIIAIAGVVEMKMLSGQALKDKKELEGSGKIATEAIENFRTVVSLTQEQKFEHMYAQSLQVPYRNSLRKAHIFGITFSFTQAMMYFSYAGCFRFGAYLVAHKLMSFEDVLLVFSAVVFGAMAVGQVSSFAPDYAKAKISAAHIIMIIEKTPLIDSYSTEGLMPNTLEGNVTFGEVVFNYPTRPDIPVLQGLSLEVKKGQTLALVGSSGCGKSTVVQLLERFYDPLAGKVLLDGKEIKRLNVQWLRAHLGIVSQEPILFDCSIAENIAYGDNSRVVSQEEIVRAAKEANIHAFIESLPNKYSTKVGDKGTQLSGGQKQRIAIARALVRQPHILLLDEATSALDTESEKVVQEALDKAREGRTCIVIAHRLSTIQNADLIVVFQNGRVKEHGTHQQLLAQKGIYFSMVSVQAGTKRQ

[2] = molecular target: T1, TPMT (thiopurine S-methyltransferase) (Homo sapiens, UniProt P51580, A154T); conditions: TPMT variant G460A, Ala154Thr; OMIM 187680
T1 sequence (P51580 1-245 A154T): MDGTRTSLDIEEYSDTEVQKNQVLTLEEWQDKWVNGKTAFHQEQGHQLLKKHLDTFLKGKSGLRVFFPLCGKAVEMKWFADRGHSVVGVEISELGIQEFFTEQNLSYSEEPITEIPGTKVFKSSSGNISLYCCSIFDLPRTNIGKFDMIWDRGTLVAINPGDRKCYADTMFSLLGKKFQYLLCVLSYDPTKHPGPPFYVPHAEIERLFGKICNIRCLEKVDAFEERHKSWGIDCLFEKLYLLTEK

[3] = molecular target: T2, TPMT (thiopurine S-methyltransferase) (Homo sapiens, UniProt P51580, A80P); conditions: TPMT variant G238C, Ala80Pro; OMIM 187680
T2 sequence (P51580 1-245 A80P): T1 sequence (P51580 1-245 A154T) with A80P, T154A

[4] = molecular target: T3, TPMT (thiopurine S-methyltransferase) (Homo sapiens, UniProt P51580, Y240C); conditions: TPMT variant A719G, Tyr240Cys; OMIM 187680
T3 sequence (P51580 1-245 Y240C): T1 sequence (P51580 1-245 A154T) with T154A, Y240C

[5] = molecular target: T4, TPMT (thiopurine S-methyltransferase) (Homo sapiens, UniProt P51580, R215H); conditions: TPMT variant G644A, Arg215His; OMIM 187680
T4 sequence (P51580 1-245 R215H): T1 sequence (P51580 1-245 A154T) with T154A, R215H

[6] = system: beta tubulin (Isoform M40)

Phenotype (CYP2D6): Debrisoquine, poor
SMILES: N=C(N)N1CCc2ccccc2C1 [Debrisoquine]

SMILES: COc1cc2c(c(OC)c1OC)-c1ccc(OC)c(=O)cc1[C@@H](NC(C)=O)CC2 [colchicine]
Phenotype: colchicine resistance [1]: increased

Phenotype [2]: sensitivity
Phenotype [3]: sensitivity
Phenotype [4]: sensitivity
Phenotype [5]: sensitivity
SMILES: Sc1ncnc2nc[nH]c12 [6-mercaptopurine]

SMILES: CC(=O)O[C@H]1C(=O)[C@@]2(C)[C@H]([C@H](OC(=O)c3ccccc3)[C@]3(O)C[C@H](OC(=O)[C@H](O)[C@@H](NC(=O)c4ccccc4)c4ccccc4)C(C)=C1C3(C)C)[C@]1(OC(C)=O)CO[C@@H]1C[C@@H]2O [paclitaxel]
Phenotype (response to paclitaxel) ([6]; beta tubulin variant Ala364Thr (G1092A)): resistance
Phenotype (response to paclitaxel) ([6]; beta tubulin variant Phe270Val (T810G)): resistance
